Measurements reported in patent US12239643B2, “Therapeutic agent for inflammatory diseases, autoimmune diseases, fibrotic diseases, and cancer diseases” (MEIJI SEIKA PHARMA CO., LTD., priority 2018, dated 2025).

system: PDE4; experiment: Evaluation of PDE4 inhibitory activity, scintillation proximity assay; assay type: biochemical; details: scintillation proximity assay; class symbols of Evaluation 1; read-out: PDE4 Inhibitory Activity (concentration for the inhibition rate of 50%, IC50), Evaluation 1
Procedure, shortened: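 SPA with [2,8-3H]-cAMP and diluted PDE4 enzyme preparation in 50 mM Tris-HCl pH 7.4, 8.3 mM MgCl2, 1.7 mM EGTA, 3 mg/mL BSA, 120 min at room temperature. Product captured on ZnSO4-containing YSi-SPA beads, scintillation counted; IC50 from inhibition curves vs DMSO control and no-enzyme blank.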

Q: With `COC(c1cc(-c2nccs2)c2oc(N3CC4CC(C3)N4)nc2c1)C(F)(F)F` (stereo not drawn) [Example 144, 2-(3,6-Diazabicyclo[3.1.1]heptan-3-yl)-7-(thiazol-2-yl)-5-(2,2,2-trifluoro-1-methoxyethyl)benzo[d]oxazole] as the compound, how does the IC50 read?
A: < 100 nM

Q: `CSc1cc(-c2nccs2)c2oc(N3CC4CCCC(C3)N4)nc2c1` [Example 41, 2-(3,9-Diazabicyclo[3.3.1]nonan-3-yl)-5-(methylthio)-7-(thiazol-2-yl)benzo[d]oxazole] was tested. Which IC50 did it give?
A: < 100 nM

Q: `FC(F)(F)Oc1cc(-c2nccs2)c2oc(N3CC4CCCC(C3)N4)nc2c1` [Example 55, 2-(3,9-Diazabicyclo[3.3.1]nonan-3-yl)-7-(thiazol-2-yl)-5-(trifluoromethoxy)benzo[d]oxazole] was tested. Which IC50 did it give?
A: < 100 nM

Q: How did the IC50 turn out when `COC(c1cc(-c2nccs2)c2oc(N3CC4CCC(C3)N4)nc2c1)C(F)(F)F` (stereo not drawn) [Example 143, 2-(3,8-Diazabicyclo[3.2.1]octan-3-yl)-7-(thiazol-2-yl)-5-(2,2,2-trifluoro-1-methoxyethyl)benzo[d]oxazole] was run?
A: < 100 nM

Q: With `OCc1ccc(-c2nccs2)c2oc(N3CC4CCCC(C3)N4)nc12` [Example 134, (2-(3,9-Diazabicyclo[3.3.1]nonan-3-yl)-7-(thiazol-2-yl)benzo[d]oxazol-4-yl)methanol] as the compound, how does the IC50 read?
A: < 100 nM

Q: Which IC50 does the source give for `FC(F)(F)c1cc(-c2nccs2)c2oc(N3CC4CCCC(C3)N4)nc2c1` [Example 53, 2-(3,9-Diazabicyclo[3.3.1]nonan-3-yl)-7-(thiazol-2-yl)-5-(trifluoromethyl)benzo[d]oxazole] here?
A: < 100 nM

Q: For `CCOC(=O)c1cc(-c2nccs2)c2oc(N3CC4CCCC(C3)N4)nc2c1C(F)(F)F` [Example 164, Ethyl 2-(3,9-diazabicyclo[3.3.1]nonan-3-yl)-7-(thiazol-2-yl)-4-(trifluoromethyl)benzo[d]oxazole-5-carboxylate], which IC50 is on record?
A: < 100 nM

Q: `CSc1cc(-c2nccs2)c2oc(N3CC4CC(C3)N4)nc2c1` [Example 40, 2-(3,6-Diazabicyclo[3.1.1]heptan-3-yl)-5-(methylthio)-7-(thiazol-2-yl)benzo[d]oxazole] was tested. Which IC50 did it give?
A: < 100 nM

Q: How did the IC50 turn out when `CC(C)c1cc(-c2nccs2)c2oc(N3CC4CCCC(C3)N4)nc2c1` [Example 24, 2-(3,9-Diazabicyclo[3.3.1]nonan-3-yl)-5-isopropyl-7-(thiazol-2-yl)benzo[d]oxazole] was run?
A: < 100 nM

Q: How did the IC50 turn out when `CS(=O)(=O)c1cc(-c2nccs2)c2oc(N3CC4CCCC(C3)N4)nc2c1` [Example 47, 2-(3,9-Diazabicyclo[3.3.1]nonan-3-yl)-5-(methylsulfonyl)-7-(thiazol-2-yl)benzo[d]oxazole] was run?
A: < 100 nM

Q: Which IC50 does the source give for `FC(F)(F)c1cc(-c2nccs2)c2oc(N3CC4CCC(C3)N4)nc2c1` [Example 51, 2-(3,8-Diazabicyclo[3.2.1]octan-3-yl)-7-(thiazol-2-yl)-5-(trifluoromethyl)benzo[d]oxazole] here?
A: < 100 nM

Q: Which IC50 does the source give for `CCOC(=O)c1ccc(-c2nccs2)c2oc(N3CC4CCC(C3)N4)nc12` [Example 112, Ethyl 2-(3,8-diazabicyclo[3.2.1]octan-3-yl)-7-(thiazol-2-yl)benzo[d]oxazole-4-carboxylate] here?
A: < 100 nM

Q: `COC(c1cc(-c2nccs2)c2oc(N3CC4CCCC(C3)N4)nc2c1)C(F)(F)F` (stereo not drawn) [Example 145, 2-(3,9-Diazabicyclo[3.3.1]nonan-3-yl)-7-(thiazol-2-yl)-5-(2,2,2-trifluoro-1-methoxyethyl)benzo[d]oxazole] was tested. Which IC50 did it give?
A: < 100 nM

Q: Which IC50 does the source give for `N#CCOC(c1cc(-c2nccs2)c2oc(N3CC4CCC(C3)N4)nc2c1)C(F)(F)F` (stereo not drawn) [Example 153, 2-(1-(2-(3,8-Diazabicyclo[3.2.1]octan-3-yl)-7-(thiazol-2-yl)benzo[d]oxazol-5-yl)-2,2,2-trifluoroethoxy)acetonitrile] here?
A: < 100 nM

Q: Which IC50 does the source give for `c1csc(-c2ccc(OC3CCC3)c3nc(N4CC5CCC(C4)N5)oc23)n1` [Example 81, 2-(3,8-Diazabicyclo[3.2.1]octan-3-yl)-4-cyclobutoxy-7-(thiazol-2-yl)benzo[d]oxazole] here?
A: < 100 nM

Q: For `OC(O)(c1cc(-c2nccs2)c2oc(N3CC4CCC(C3)N4)nc2c1)C(F)(F)F` [Example 157, 1-(2-(3,8-Diazabicyclo[3.2.1]octan-3-yl)-7-(thiazol-2-yl)benzo[d]oxazol-5-yl)-2,2,2-trifluoroethane-1,1-diol], which IC50 is on record?
A: < 100 nM

Q: `CS(=O)(=O)c1cc(-c2nccs2)c2oc(N3CC4CCC(C3)N4)nc2c1` [Example 45, 2-(3,8-Diazabicyclo[3.2.1]octan-3-yl)-5-(methylsulfonyl)-7-(thiazol-2-yl)benzo[d]oxazole] was tested. Which IC50 did it give?
A: < 100 nM

Q: `CC(=O)c1cc(-c2nccs2)c2oc(N3CC4CCC(C3)N4)nc2c1C(F)(F)F` [Example 179, 1-(2-(3,8-Diazabicyclo[3.2.1]octan-3-yl)-7-(thiazol-2-yl)-4-(trifluoromethyl)benzo[d]oxazol-5-yl)ethan-1-one] was tested. Which IC50 did it give?
A: < 100 nM

Q: For `CCOC(=O)c1cc(-c2nccs2)c2oc(N3CC4CC(C3)N4)nc2c1` [Example 87, Ethyl 2-(3,6-diazabicyclo[3.1.1]heptan-3-yl)-7-(thiazol-2-yl)benzo[d]oxazole-5-carboxylate], which IC50 is on record?
A: < 100 nM

Q: Which IC50 does the source give for `c1csc(-c2ccc(-c3nccs3)c3oc(N4CC5CCC(C4)N5)nc23)n1` [Example 85, 2-(3,8-Diazabicyclo[3.2.1]octan-3-yl)-4,7-di(thiazol-2-yl)benzo[d]oxazole] here?
A: < 100 nM

Q: With `COC(C)(C)c1cc(-c2nccs2)c2oc(N3CC4CC(C3)N4)nc2c1` [Example 174, 2-(3,6-Diazabicyclo[3.1.1]heptan-3-yl)-5-(2-methoxypropan-2-yl)-7-(thiazol-2-yl)benzo[d]oxazole] as the compound, how does the IC50 read?
A: < 100 nM

Q: With `OC(c1ccc(-c2nccs2)c2oc(N3CC4CCC(C3)N4)nc12)C(F)F` (stereo not drawn) [Example 128, 1-(2-(3,8-Diazabicyclo[3.2.1]octan-3-yl)-7-(thiazol-2-yl)benzo[d]oxazol-4-yl)-2,2-difluoroethan-1-ol] as the compound, how does the IC50 read?
A: < 100 nM

same assay, conditions: scintillation proximity assay; read-out: PDE4 Inhibitory Activity (Evaluation 1; concentration for the inhibition rate of 50%)

Q: For `CC(O)c1cc(-c2nccs2)c2oc(N3CC4CCC(C3)N4)nc2c1OC(F)(F)F` (stereo not drawn) [Example 202, 1-(2-(3,8-Diazabicyclo[3.2.1]octan-3-yl)-7-(thiazol-2-yl)-4-(trifluoromethoxy)benzo[d]oxazol-5-yl)ethan-1-ol], which IC50 is on record?
A: < 100 nM

Q: For `ON1C2CC1CN(c1nc3c(OC(F)(F)F)ccc(-c4nccs4)c3o1)C2` [Example 380, 3-(7-(Thiazol-2-yl)-4-(trifluoromethoxy)benzo[d]oxazol-2-yl)-3,6-diazabicyclo[3.1.1]heptan-6-ol], which IC50 is on record?
A: < 100 nM

Q: With `OC(c1cc(-c2nccs2)c2oc(N3CC4CCC(C3)N4)nc2c1OC(F)(F)F)C(F)F` (stereo not drawn) [Example 275, 1-(2-(3,8-Diazabicyclo[3.2.1]octan-3-yl)-7-(thiazol-2-yl)-4-(trifluoromethoxy)benzo[d]oxazol-5-yl)-2,2-difluoroethan-1-ol] as the compound, how does the IC50 read?
A: < 100 nM

Q: Which IC50 does the source give for `OCC(F)(F)OC(c1ccc(-c2nccs2)c2oc(N3CC4CC(C3)N4)nc12)C(F)(F)F` (stereo not drawn) [Example 258, 2-(1-(2-(3,6-Diazabicyclo[3.1.1]heptan-3-yl)-7-(thiazol-2-yl)benzo[d]oxazol-4-yl)-2,2,2-trifluoroethoxy)-2,2-difluoroethan-1-ol] here?
A: < 100 nM

Q: For `c1csc(-c2ccc(N3CCCC3)c3nc(N4CC5CC(C4)N5)oc23)n1` [Example 415, 2-(3,6-Diazabicyclo[3.1.1]heptan-3-yl)-4-(pyrrolidin-1-yl)-7-(thiazol-2-yl)benzo[d]oxazole], which IC50 is on record?
A: < 100 nM

Q: With `O=C(O)c1cc(-c2nccs2)c2oc(N3CC4CCC(C3)N4)nc2c1OC(F)(F)F` [Example 189, 2-(3,8-Diazabicyclo[3.2.1]octan-3-yl)-7-(thiazol-2-yl)-4-(trifluoromethoxy)benzo[d]oxazole-5-carboxylic acid] as the compound, how does the IC50 read?
A: 100 to 1000 nM

Q: For `CCC(O)c1cc(-c2nccs2)c2oc(N3CC4CCC(C3)N4)nc2c1OC(F)(F)F` (stereo not drawn) [Example 204, 1-(2-(3,8-Diazabicyclo[3.2.1]octan-3-yl)-7-(thiazol-2-yl)-4-(trifluoromethoxy)benzo[d]oxazol-5-yl)propan-1-ol], which IC50 is on record?
A: < 100 nM

Q: How did the IC50 turn out when `O=S(=O)(c1ccc(-c2nccs2)c2oc(N3CC4CC(C3)N4)nc12)N1CCCC1` [Example 390, 2-(3,6-Diazabicyclo[3.1.1]heptan-3-yl)-4-(pyrrolidin-1-ylsulfonyl)-7-(thiazol-2-yl)benzo[d]oxazole] was run?
A: < 100 nM

Q: For `CC(O)(c1cc(-c2nccs2)c2oc(N3CC4CC(C3)N4)nc2c1OC(F)(F)F)C(F)(F)F` (stereo not drawn) [Example 216, 2-(2-(3,6-Diazabicyclo[3.1.1]heptan-3-yl)-7-(thiazol-2-yl)-4-(trifluoromethoxy)benzo[d]oxazol-5-yl)-1,1,1-trifluoropropan-2-ol], which IC50 is on record?
A: < 100 nM

Q: How did the IC50 turn out when `OC1(c2cc(-c3nccs3)c3oc(N4CC5CCC(C4)N5)nc3c2OC(F)(F)F)CC1` [Example 274, 1-(2-(3,8-Diazabicyclo[3.2.1]octan-3-yl)-7-(thiazol-2-yl)-4-(trifluoromethoxy)benzo[d]oxazol-5-yl)cyclopropan-1-ol] was run?
A: < 100 nM

Q: How did the IC50 turn out when `O=C(O)c1ccc(-c2nccs2)c2oc(N3CC4CCC(C3)N4)nc12` [Example 238, 2-(3,8-Diazabicyclo[3.2.1]octan-3-yl)-7-(thiazol-2-yl)benzo[d]oxazole-4-carboxylic acid] was run?
A: < 100 nM

Q: `OC1(COC(c2ccc(-c3cscn3)c3oc(N4CC5CC(C4)N5)nc23)C(F)(F)F)CC1` (stereo not drawn) [Example 286, 1-((1-(2-(3,6-Diazabicyclo[3.1.1]heptan-3-yl)-7-(thiazol-4-yl)benzo[d]oxazol-4-yl)-2,2,2-trifluoroethoxy)methyl)cyclopropan-1-ol] was tested. Which IC50 did it give?
A: < 100 nM

Q: For `CC(C)(O)C(F)(F)Oc1ccc(-c2ncco2)c2oc(N3CC4CC(C3)N4)nc12` [Example 290, 1-((2-(3,6-Diazabicyclo[3.1.1]heptan-3-yl)-7-(oxazol-2-yl)benzo[d]oxazol-4-yl)oxy)-1,1-difluoro-2-methylpropan-2-ol], which IC50 is on record?
A: < 100 nM

Q: Which IC50 does the source give for `OC(COc1ccc(-c2nccs2)c2oc(N3CC4CC(C3)N4)nc12)C(F)(F)F` (stereo not drawn) [Example 277, 3-((2-(3,6-Diazabicyclo[3.1.1]heptan-3-yl)-7-(thiazol-2-yl)benzo[d]oxazol-4-yl)oxy)-1,1,1-trifluoropropan-2-ol] here?
A: < 100 nM
